# Results taken from paper PMC6720199, “Antioxidant, Anti-Inflammatory, and Multidrug Resistance Modulation Activity of Silychristin Derivatives” (Antioxidants, 2019).
# Target: T1, P-glycoprotein (P-gp, ABCB1) (Homo sapiens, UniProt P08183)
# T1 construct: P-gp containing membranes of the commercial Pgp-Glo Assay System (Promega; kit membranes carry recombinant human P-gp); full length, not purified
# Assay: Pgp-Glo luminescent ATPase assay, P-gp membranes
# Type: biochemical
# Description: Pgp-Glo luminescent ATPase assay, P-gp membranes on P-glycoprotein (P-gp, ABCB1)
# T1 sequence (P08183 whole entry): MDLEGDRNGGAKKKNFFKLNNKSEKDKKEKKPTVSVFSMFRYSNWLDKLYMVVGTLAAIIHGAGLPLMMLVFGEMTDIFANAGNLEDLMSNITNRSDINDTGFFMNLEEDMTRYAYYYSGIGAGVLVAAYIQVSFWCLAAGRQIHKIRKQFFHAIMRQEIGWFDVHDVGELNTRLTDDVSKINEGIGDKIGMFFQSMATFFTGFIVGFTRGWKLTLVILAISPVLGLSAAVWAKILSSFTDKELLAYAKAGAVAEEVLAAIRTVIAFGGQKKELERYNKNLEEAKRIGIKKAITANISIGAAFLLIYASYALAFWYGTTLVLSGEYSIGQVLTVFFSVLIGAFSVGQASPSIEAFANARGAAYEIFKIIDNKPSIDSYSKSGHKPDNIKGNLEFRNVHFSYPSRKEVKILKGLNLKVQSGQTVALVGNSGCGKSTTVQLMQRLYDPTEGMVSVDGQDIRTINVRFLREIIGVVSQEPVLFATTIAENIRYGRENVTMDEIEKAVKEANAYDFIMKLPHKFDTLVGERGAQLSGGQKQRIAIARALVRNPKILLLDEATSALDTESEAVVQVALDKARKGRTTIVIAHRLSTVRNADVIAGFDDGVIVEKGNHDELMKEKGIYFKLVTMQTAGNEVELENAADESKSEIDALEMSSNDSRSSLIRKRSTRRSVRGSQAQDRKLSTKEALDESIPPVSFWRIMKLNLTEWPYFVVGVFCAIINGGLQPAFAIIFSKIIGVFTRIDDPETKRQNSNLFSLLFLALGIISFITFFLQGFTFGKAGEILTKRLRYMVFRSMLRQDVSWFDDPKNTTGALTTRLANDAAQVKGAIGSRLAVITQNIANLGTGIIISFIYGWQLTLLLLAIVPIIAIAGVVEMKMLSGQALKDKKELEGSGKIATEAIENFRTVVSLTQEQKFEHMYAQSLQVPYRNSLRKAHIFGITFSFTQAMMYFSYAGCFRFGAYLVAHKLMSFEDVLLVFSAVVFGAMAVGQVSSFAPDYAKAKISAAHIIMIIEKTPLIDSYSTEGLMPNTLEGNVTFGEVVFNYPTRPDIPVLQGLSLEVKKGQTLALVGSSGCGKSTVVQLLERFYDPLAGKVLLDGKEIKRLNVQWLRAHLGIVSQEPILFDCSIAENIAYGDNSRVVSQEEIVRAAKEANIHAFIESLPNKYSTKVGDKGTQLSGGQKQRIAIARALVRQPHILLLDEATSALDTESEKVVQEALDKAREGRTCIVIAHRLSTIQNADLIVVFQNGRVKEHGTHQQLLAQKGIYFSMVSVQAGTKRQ
row,Compound,IC50 [µM]
1,COc1cc([C@@H]2Oc3c(O)cc([C@H]4Oc5cc(O)cc(O)c5C(=O)[C@@H]4O)cc3[C@H]2CO)ccc1O [Silychristin A],21 ± 1
2,"COc1cc([C@@H]2Oc3c(O)cc(-c4oc5cc(O)cc(O)c5c(=O)c4O)cc3[C@H]2CO)ccc1O [2,3-Dehydrosilychristin A]",15.6 ± 0.5
3,COc1cc(-c2oc3c(O)cc([C@H]4Oc5cc(O)cc(O)c5C(=O)[C@@H]4O)cc3c2C)ccc1O [Anhydrosilychristin],16.8 ± 0.2
